# Reference: US11098054B2, “Englerin derivatives for treatment of cancer” (The United States of America,as represented by the …, priority 2017, dated 2021)
# Experiments:
# Assay type in all cases: cell-based
# A498 = experiment: NCI 60-cell line protocol, A498 (renal); conditions: Homo sapiens, 48 h, two days drug exposure, SRB endpoint, read-out: GI-50 value
# Protocol: (§1) Samples containing exemplary compounds of formulas (Ia)-(Ig) were tested in the standard National Cancer Institute 60-cell line protocol. First, they were tested against all 60 cell lines in a single final concentration of 10 micromolar. Then, they were separately tested in five 10-fold dilutions. The drug exposure was two days, with an SRB endpoint.
# BT-549 = experiment: NCI 60-cell line protocol, BT-549 (breast); conditions: Homo sapiens, 48 h, two days drug exposure, SRB endpoint, read-out: GI-50 value
# Protocol: as §1
# 786-0 = experiment: NCI 60-cell line protocol, 786-0 (renal); conditions: Homo sapiens, 48 h, two days drug exposure, SRB endpoint, read-out: GI-50 value
# Protocol: as §1
# UO-31 = experiment: NCI 60-cell line protocol, UO-31 (renal); conditions: Homo sapiens, 48 h, two days drug exposure, SRB endpoint, read-out: GI-50 value
# Protocol: as §1
# ACHN = experiment: NCI 60-cell line protocol, ACHN (renal); conditions: Homo sapiens, 48 h, two days drug exposure, SRB endpoint, read-out: GI-50 value
# Protocol: as §1
# [1] = tested on: cancer cell lines within the NCI 60 cell assay; experiment: NCI 60 cell assay, cancer cell line panel; conditions: Homo sapiens, average over the nine cell lines of Table 1, read-out: Average GI-50
# Protocol: as §1
# RXF 393 = experiment: NCI 60-cell line protocol, RXF 393 (renal); conditions: Homo sapiens, 48 h, two days drug exposure, SRB endpoint, read-out: GI-50 value
# Protocol: as §1
# HS 578T = experiment: NCI 60-cell line protocol, HS 578T (breast); conditions: Homo sapiens, 48 h, two days drug exposure, SRB endpoint, read-out: GI-50 value
# Protocol: as §1
# SN12C = experiment: NCI 60-cell line protocol, SN12C (renal); conditions: Homo sapiens, 48 h, two days drug exposure, SRB endpoint, read-out: GI-50 value
# Protocol: as §1
# OVCAR-8 = experiment: NCI 60-cell line protocol, OVCAR-8 (ovarian); conditions: Homo sapiens, 48 h, two days drug exposure, SRB endpoint, read-out: GI-50 value
# Protocol: as §1
SMILES,GI50 (A498),GI50 (BT-549),GI50 (786-0),GI50 (UO-31),GI50 (ACHN),GI50 [1],GI50 (RXF 393),GI50 (HS 578T),GI50 (SN12C),GI50 (OVCAR-8)
C[C@@H]1CC[C@@H]2C1[C@H](OC(=O)/C=C/c1ccccc1)C1(C3CCCCC3)C[C@@H](NC(=O)CO)C2(C)O1 (stereo partly shown) [(Ia)],2190 nM,13200 nM,14800 nM,4790 nM,3470 nM,8030 nM,3310 nM,2820 nM,11500 nM,16200 nM
C[C@@H]1CC[C@@H]2C1[C@H](OC(=O)/C=C/c1ccccc1)[C@]1(C3CCCCC3)C[C@@H](OC(=O)CO)[C@@]2(C)O1 (stereo partly shown) [(Ib)],19 nM,34 nM,1180 nM,15 nM,10 nM,217 nM,78 nM,24 nM,85 nM,513 nM
C[C@@H]1CC[C@@H]2C1[C@H](OC(=O)/C=C/c1ccccc1)[C@]1(c3ccccc3)C[C@@H](OC(=O)CO)[C@@]2(C)O1 (stereo partly shown) [(Ic)],191 nM,407 nM,11700 nM,155 nM,178 nM,2260 nM,251 nM,112 nM,537 nM,6760 nM
CC1CC[C@@H]2C1[C@H](OC(=O)/C=C/C1CCCCC1)[C@]1(C3CCCCC3)C[C@@H](OC(=O)CO)[C@@]2(C)O1 (stereo partly shown) [(Id)],21 nM,55 nM,12000 nM,29 nM,22 nM,2550 nM,34 nM,16 nM,32 nM,10700 nM
C/C(=C\C(=O)O[C@H]1C2C(C)CC[C@H]2[C@]2(C)O[C@@]1(C1CCCCC1)C[C@H]2OC(=O)CO)c1ccccc1 (stereo partly shown) [(Ie)],16 nM,120 nM,5130 nM,62 nM,15 nM,1080 nM,79 nM,10 nM,23 nM,4270 nM
CC1CC[C@@H]2C1[C@H](OC(=O)c1ccc3ccccc3c1)[C@]1(C3CCCCC3)C[C@@H](OC(=O)CO)[C@@]2(C)O1 (stereo partly shown) [(If)],19 nM,71 nM,5370 nM,40 nM,19 nM,1250 nM,71 nM,23 nM,52 nM,5620 nM
Cc1c(C(=O)O[C@H]2C3C(C)CC[C@H]3[C@]3(C)O[C@@]2(C2CCCCC2)C[C@H]3OC(=O)CO)ccc2ccccc12 (stereo partly shown) [(Ig)],17 nM,5250 nM,6460 nM,407 nM,59 nM,2130 nM,166 nM,17 nM,158 nM,6610 nM
